Tests used:
[1] = tested on: Aspergillus niger ATCC 9029AA; assay: Heat treatment of Aspergillus niger ATCC 9029AA spores in ice tea with natamycin, visual growth; format: cell-based; design: key to growth or no growth: growth (+); no growth (−)
Procedure: Commercially available ice tea (Lipton, peach flavor, non-carbonated, 1.5 L) was adjusted to high water hardness by adding 1 ml of a solution of 39 g CaCl2 and 27 g MgCl2 added to 934 g water. ⅓ of this ice tea preparation (the pH of which was 3.15) was left as-such, ⅓ of the preparation was enriched with 5 ppm natamycin and ⅓ of the preparation was enriched with 10 ppm natamycin. Samples of 5 ml were made from each preparation in 15 ml sterile plastic tubes. Of each preparation 8 samples were pre-heated to the desired pasteurization temperature using a water bath. Temperatures used were RT, 60, 65, 70, 75, 80, 85 and 90° C. When the desired temperature was reached, 100 μl of a 2500 spores/ml spore suspension of Aspergillus niger ATCC 9029AA was added to each tube. Subsequently, the samples were kept for 30 seconds at the temperature in question in the water bath. Next, the samples were cooled on ice to a temperature of 25° C. Samples were incubated at 25° C. and visually examined for growth (formation of mold flakes or turbidity) for two months. Additionally, samples were enumerated according to ISO protocol 21527-1.2008 on day 0 (before heat treatment) and day 1 (after heat treatment) to count immediate loss of viability. Enumeration was repeated after 1 month when samples remained free from visual mold growth; most counts were reduced to <10 after heat treatment, but were still able to grow. For the results, see Table 1.

[2] = tested on: Taleromyces macrosporus CBS 130.89; settings: 2.5 ppm natamycin, heat treatment, apple juice; cited from earlier work

C[C@@H]1C/C=C/C=C/C=C/C=C/[C@H](O[C@@H]2O[C@H](C)[C@@H](O)[C@H](N)[C@@H]2O)C[C@@H]2O[C@](O)(C[C@@H](O)C[C@H]3O[C@@H]3/C=C/C(=O)O1)C[C@H](O)[C@H]2C(=O)O [natamycin]
growth or no growth ([1]; 60°C, 5 ppm, day 1): − | growth or no growth ([1]; 60°C, 5 ppm, day 2): − | growth or no growth ([1]; 60°C, 5 ppm, day 3): − | growth or no growth ([1]; 60°C, 5 ppm, day 4): − | growth or no growth ([1]; 60°C, 5 ppm, day 5): − | growth or no growth ([1]; 60°C, 5 ppm, day 6): − | growth or no growth ([1]; 60°C, 5 ppm, day 7): + | growth or no growth ([1]; 60°C, 5 ppm, day 8): + | growth or no growth ([1]; 60°C, 5 ppm, day 9): + | growth or no growth ([1]; 60°C, 5 ppm, day 10): + | growth or no growth ([1]; 60°C, 5 ppm, day 11): + | growth or no growth ([1]; 60°C, 5 ppm, day 12): + | growth or no growth ([1]; 60°C, 5 ppm, day 13): + | growth or no growth ([1]; 60°C, 5 ppm, day 14): + | growth or no growth ([1]; 60°C, 5 ppm, day 15): + | growth or no growth ([1]; 60°C, 5 ppm, day 16): + | growth or no growth ([1]; 60°C, 5 ppm, day 17): + | growth or no growth ([1]; 60°C, 5 ppm, day 50): + | growth or no growth ([1]; 60°C, 10 ppm, day 1): − | growth or no growth ([1]; 60°C, 10 ppm, day 2): − | growth or no growth ([1]; 60°C, 10 ppm, day 3): − | growth or no growth ([1]; 60°C, 10 ppm, day 4): − | growth or no growth ([1]; 60°C, 10 ppm, day 5): − | growth or no growth ([1]; 60°C, 10 ppm, day 6): − | growth or no growth ([1]; 60°C, 10 ppm, day 7): − | growth or no growth ([1]; 60°C, 10 ppm, day 8): − | growth or no growth ([1]; 60°C, 10 ppm, day 9): − | growth or no growth ([1]; 60°C, 10 ppm, day 10): + | growth or no growth ([1]; 60°C, 10 ppm, day 11): + | growth or no growth ([1]; 60°C, 10 ppm, day 12): + | growth or no growth ([1]; 60°C, 10 ppm, day 13): + | growth or no growth ([1]; 60°C, 10 ppm, day 14): + | growth or no growth ([1]; 60°C, 10 ppm, day 15): + | growth or no growth ([1]; 60°C, 10 ppm, day 16): + | growth or no growth ([1]; 60°C, 10 ppm, day 17): + | growth or no growth ([1]; 60°C, 10 ppm, day 50): + | growth or no growth ([1]; 65°C, 5 ppm, day 1): − | growth or no growth ([1]; 65°C, 5 ppm, day 2): − | growth or no growth ([1]; 65°C, 5 ppm, day 3): − | growth or no growth ([1]; 65°C, 5 ppm, day 4): − | growth or no growth ([1]; 65°C, 5 ppm, day 5): − | growth or no growth ([1]; 65°C, 5 ppm, day 6): − | growth or no growth ([1]; 65°C, 5 ppm, day 7): − | growth or no growth ([1]; 65°C, 5 ppm, day 8): − | growth or no growth ([1]; 65°C, 5 ppm, day 9): − | growth or no growth ([1]; 65°C, 5 ppm, day 10): − | growth or no growth ([1]; 65°C, 5 ppm, day 11): − | growth or no growth ([1]; 65°C, 5 ppm, day 12): − | growth or no growth ([1]; 65°C, 5 ppm, day 13): − | growth or no growth ([1]; 65°C, 5 ppm, day 14): − | growth or no growth ([1]; 65°C, 5 ppm, day 15): − | growth or no growth ([1]; 65°C, 5 ppm, day 16): − | growth or no growth ([1]; 65°C, 5 ppm, day 17): − | growth or no growth ([1]; 65°C, 5 ppm, day 50): − | growth or no growth ([1]; 65°C, 10 ppm, day 1): − | growth or no growth ([1]; 65°C, 10 ppm, day 2): − | growth or no growth ([1]; 65°C, 10 ppm, day 3): − | growth or no growth ([1]; 65°C, 10 ppm, day 4): − | growth or no growth ([1]; 65°C, 10 ppm, day 5): − | growth or no growth ([1]; 65°C, 10 ppm, day 6): − | growth or no growth ([1]; 65°C, 10 ppm, day 7): − | growth or no growth ([1]; 65°C, 10 ppm, day 8): − | growth or no growth ([1]; 65°C, 10 ppm, day 9): − | growth or no growth ([1]; 65°C, 10 ppm, day 10): − | growth or no growth ([1]; 65°C, 10 ppm, day 11): − | growth or no growth ([1]; 65°C, 10 ppm, day 12): − | growth or no growth ([1]; 65°C, 10 ppm, day 13): − | growth or no growth ([1]; 65°C, 10 ppm, day 14): − | growth or no growth ([1]; 65°C, 10 ppm, day 15): − | growth or no growth ([1]; 65°C, 10 ppm, day 16): − | growth or no growth ([1]; 65°C, 10 ppm, day 17): − | growth or no growth ([1]; 65°C, 10 ppm, day 50): − | germination ([1]; 70° C., in the presence of natamycin): no germination occurred | growth or no growth ([1]; 70°C, 5 ppm, day 1): − | growth or no growth ([1]; 70°C, 5 ppm, day 2): − | growth or no growth ([1]; 70°C, 5 ppm, day 3): − | growth or no growth ([1]; 70°C, 5 ppm, day 4): − | growth or no growth ([1]; 70°C, 5 ppm, day 5): − | growth or no growth ([1]; 70°C, 5 ppm, day 6): − | growth or no growth ([1]; 70°C, 5 ppm, day 7): − | growth or no growth ([1]; 70°C, 5 ppm, day 8): − | growth or no growth ([1]; 70°C, 5 ppm, day 9): − | growth or no growth ([1]; 70°C, 5 ppm, day 10): − | growth or no growth ([1]; 70°C, 5 ppm, day 11): − | growth or no growth ([1]; 70°C, 5 ppm, day 12): − | growth or no growth ([1]; 70°C, 5 ppm, day 13): − | growth or no growth ([1]; 70°C, 5 ppm, day 14): − | growth or no growth ([1]; 70°C, 5 ppm, day 15): − | growth or no growth ([1]; 70°C, 5 ppm, day 16): − | growth or no growth ([1]; 70°C, 5 ppm, day 17): − | growth or no growth ([1]; 70°C, 5 ppm, day 50): − | growth or no growth ([1]; 70°C, 10 ppm, day 9): − | growth or no growth ([1]; 70°C, 10 ppm, day 10): − | growth or no growth ([1]; 70°C, 10 ppm, day 11): − | growth or no growth ([1]; 70°C, 10 ppm, day 12): − | growth or no growth ([1]; 70°C, 10 ppm, day 13): − | growth or no growth ([1]; 70°C, 10 ppm, day 14): − | growth or no growth ([1]; 70°C, 10 ppm, day 15): − | growth or no growth ([1]; 70°C, 10 ppm, day 16): − | growth or no growth ([1]; 70°C, 10 ppm, day 17): − | growth or no growth ([1]; 70°C, 10 ppm, day 50): − | germination ([1]; RT and 60° C., 5 ppm natamycin): delayed germination | germination ([1]; RT and 60° C., 10 ppm natamycin): longer delay | duration of prevention of germination [2]: 4 days
